Results reported in patent US7771736B2, “Glyphosate formulations and their use for the inhibition of 5-enolpyruvylshikimate-3-phosphate synthase” (Monsanto Technology LLC, priority 2002, dated 2010).
Where two headings read alike, the source gives them in different places.

What was measured:
maize EPSPS = experiment: enzyme activity of maize EPSPS (HPLC radioassay, S3P and 14C-PEP) with oxalate or citrate in the presence and absence of glyphosate; assay type: biochemical; conditions: for effect on the inhibition of EPSPS by glyphosate (rate of catalytic activity on S3P and PEP): additive with 0, 0.6 or 6 mcM glyphosate, relative rate normalized to zero glyphosate
Experimental: These examples assessed the enzyme activity of maize EPSPS with increasing concentrations of oxalate (0, 0.06 mcM, 0.3 mcM, 1.5 mcM, 7.5 mcM and 37.5 mcM) in the presence and absence of glyphosate. Three different conditions (0, 0.6 mcM, and 6 mcM glyphosate) were studied. The assay consisted of incubating enzyme (9 mcg/mL final concentration in the assay) with S3P and ^14C-PEP. The conversion of labeled substrate to 5-enol-[^14C]-pyruvylshikimate-3-phosphate was determined by HPLC radioassay.
Initial velocities were calculated by multiplying fractional turnover per unit time by the initial concentration of the labeled substrate. The data are expressed as relative rates of the enzyme, where relative rate is the reaction rate at a given condition normalized to similar reaction with zero glyphosate.

different weed species = experiment: herbicidal efficacy in whole plants / on different weed species; assay type: in vivo; conditions: for enhancement of glyphosate herbicidal efficacy: additive combined with glyphosate, whole plants / weed species
[1] = Metal Ion Ca2+; cited from earlier work
[2] = Metal Ion Mg2+; cited from earlier work
Toxoplasma gondii = conditions: cited from earlier work
Plasmodium falciparum = Plasmodium falciparum (malaria); cited from earlier work
Cryptosporidium parvum = conditions: cited from earlier work

Structure (SMILES)	effect on the inhibition of EPSPS by glyphosate (rate of catalytic activity on S3P and PEP) (maize EPSPS)	enhancement of glyphosate herbicidal efficacy (different weed species)	Log K (Binding Constant) [1]	Log K (Binding Constant) [2]	effect on the inhibition of EPSPS by glyphosate (rate of catalytic activity on S3P and PEP) (maize EPSPS; listed as oxalate)	inhibitory effect on the enzyme on its own (maize EPSPS; without glyphosate)	herbicidal property by itself (different weed species; additive alone, enzyme studies and whole plant response)	growth inhibition of parasite (Toxoplasma gondii)	growth inhibition of parasite (Plasmodium falciparum)	growth inhibition of parasite (Cryptosporidium parvum)
O=C(O)CC(O)(CC(=O)O)C(=O)O [Citric acid, citric acid]	did not have any effect on EPSPS inhibition by glyphosate	failed to show enhancement of glyphosate efficacy on different weed species	3.45	3.45	–	–	–	–	–	–
O=C(O)C(=O)O [Oxalic acid, oxalic acid]	enhance the inhibition of EPSPS by glyphosate	enhance the inhibition of EPSPS by glyphosate as well as its herbicidal efficacy in whole plants	2.46	2.76	enhanced the enzyme binding of glyphosate	do not have any inhibitory effect on the enzyme on their own	does not have any herbicidal property	–	–	–
O=C(O)CNCP(=O)(O)O [glyphosate, N-phosphonomethyl glycine]	–	–	–	–	–	–	–	growth of these parasites can be inhibited	growth of these parasites can be inhibited	growth of these parasites can be inhibited
